# Experiments:
# pigweed, palmer [1] = test: Test C preemergence; assay type: in vivo, Amaranthus palmeri
# Procedure, shortened: (§1)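 Soil-applied (pre) and foliar (post, 1–2 leaf, 2–10 cm) sprays; surfactant-containing non-phytotoxic solvent vehicle; loam/sand substrate. Readout: visual % control at 10 d, greenhouse, versus untreated.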
# foxtail, giant [2] = test: Test C preemergence; assay type: in vivo, Setaria faberi
# Excerpt: (§2) Seeds of plant species selected from barnyardgrass (Echinochloa crusgalli), blackgrass (Alopecurus myosuroides), corn (Zea mays), foxtail, giant (giant foxtail, Setaria faberi), green foxtail (Setaria viridis), goosegrass (Eleusine indica), kochia (Bassia scoparia), oat, wild (wild oat, Avena fatua), pigweed, palmer (palmer amaranth, palmer pigweed, Amaranthus palmeri), Pigweed, Redroot (redroot pigweed, Amaranthus retroflexus), ragweed (common ragweed, Ambrosia artemisiifolia), ryegrass, Italian ([…] ryegrass, Lolium multiflorum), soybean (Glycine max), and wheat (Triticum aestivum) were planted into a blend of loam soil and sand and treated preemergence with a directed soil spray using test chemicals formulated in a non-phytotoxic solvent mixture which included a surfactant. At the same time, plants selected from these crops and weed species and also galium (catchweed bedstraw, Galium aparine) and horseweed (Erigeron canadensis) were planted in pots containing the same blend of loam soil and sand and treated with postemergence applications of test chemicals formulated in the same manner. Plants ranged in height from 2 to 10 cm and were in the one- to two-leaf stage for the postemergence treatment. Treated plants and untreated controls were maintained in a greenhouse for 10 days, after which time all treated plants were compared to untreated controls and visually evaluated for injury. Plant response ratings, summarized in Table C, are based on a 0 to 100 scale where 0 is no effect and 100 is complete control. A dash (-) response means no test result.
# wheat [3] = test: Test C preemergence; assay type: in vivo, Triticum aestivum
# Procedure, shortened: as §1
# barnyardgrass [4] = test: Test C postemergence; assay type: in vivo, Echinochloa crusgalli; conditions: 10 days, 0 to 100 scale (0 no effect, 100 complete control)
# Procedure, shortened: as §1
# blackgrass [5] = test: Test C preemergence; assay type: in vivo, Alopecurus myosuroides
# Procedure, shortened: as §1
# ryegrass, Italian [6] = test: Test C postemergence; assay type: in vivo, Lolium multiflorum; conditions: 10 days, 0 to 100 scale (0 no effect, 100 complete control)
# Procedure, shortened: as §1
# foxtail, giant [7] = test: Test C postemergence; assay type: in vivo, Setaria faberi; conditions: 10 days, 0 to 100 scale (0 no effect, 100 complete control)
# Excerpt: as §2
# soybean [8] = test: Test C postemergence; assay type: in vivo, Glycine max; conditions: 10 days, 0 to 100 scale (0 no effect, 100 complete control)
# Procedure, shortened: as §1
# wheat [9] = test: Test C postemergence; assay type: in vivo, Triticum aestivum; conditions: 10 days, 0 to 100 scale (0 no effect, 100 complete control)
# Procedure, shortened: as §1
# barnyardgrass [10] = test: Test C preemergence; assay type: in vivo, Echinochloa crusgalli
# Procedure, shortened: as §1
# ragweed [11] = test: Test C preemergence; assay type: in vivo, Ambrosia artemisiifolia
# Procedure, shortened: as §1
# oat, wild [12] = test: Test C postemergence; assay type: in vivo, Avena fatua; conditions: 10 days, 0 to 100 scale (0 no effect, 100 complete control)
# Procedure, shortened: as §1
# ryegrass, Italian [13] = test: Test C preemergence; assay type: in vivo, Lolium multiflorum
# Procedure, shortened: as §1
# sedge, umbrella = test: Test D flooded paddy test; assay type: in vivo, Cyperus difformis; conditions: 250 g ai/ha, applied to paddy water, visual rating after 13 to 14 days, scale 0 to 100 (0 no effect, 100 complete control)
# Procedure, shortened: (§3)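 Plants grown to the 2-leaf stage; pots flooded to 3 cm above soil at treatment and held at that depth throughout. Test compounds applied directly to the paddy water. After 13 to 14 days in a greenhouse, response was rated visually versus controls on a 0 (no effect) to 100 (complete control) scale.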
# horseweed = test: Test C postemergence; assay type: in vivo, Erigeron canadensis; conditions: 10 days, 0 to 100 scale (0 no effect, 100 complete control)
# Procedure, shortened: as §1
# galium = test: Test C postemergence; assay type: in vivo, Galium aparine; conditions: 10 days, 0 to 100 scale (0 no effect, 100 complete control)
# Procedure, shortened: as §1
# rice = test: Test D flooded paddy test; assay type: in vivo, Oryza sativa; conditions: 250 g ai/ha, applied to paddy water, visual rating after 13 to 14 days, scale 0 to 100 (0 no effect, 100 complete control)
# Procedure, shortened: as §3
# ducksalad = test: Test D flooded paddy test; assay type: in vivo, Heteranthera limosa; conditions: 250 g ai/ha, applied to paddy water, visual rating after 13 to 14 days, scale 0 to 100 (0 no effect, 100 complete control)
# Procedure, shortened: as §3
# kochia [14] = test: Test C postemergence; assay type: in vivo, Bassia scoparia; conditions: 10 days, 0 to 100 scale (0 no effect, 100 complete control)
# Procedure, shortened: as §1
# kochia [15] = test: Test C preemergence; assay type: in vivo, Bassia scoparia
# Procedure, shortened: as §1
# oat, wild [16] = test: Test C preemergence; assay type: in vivo, Avena fatua
# Procedure, shortened: as §1
# soybean [17] = test: Test C preemergence; assay type: in vivo, Glycine max
# Procedure, shortened: as §1
# corn [18] = test: Test C postemergence; assay type: in vivo, Zea mays; conditions: 10 days, 0 to 100 scale (0 no effect, 100 complete control)
# Procedure, shortened: as §1
# ragweed [19] = test: Test C postemergence; assay type: in vivo, Ambrosia artemisiifolia; conditions: 10 days, 0 to 100 scale (0 no effect, 100 complete control)
# Procedure, shortened: as §1
# barnyardgrass [20] = test: Test D flooded paddy test; assay type: in vivo, Echinochloa crus-galli; conditions: 250 g ai/ha, applied to paddy water, visual rating after 13 to 14 days, scale 0 to 100 (0 no effect, 100 complete control)
# Procedure, shortened: as §3
# blackgrass [21] = test: Test C postemergence; assay type: in vivo, Alopecurus myosuroides; conditions: 10 days, 0 to 100 scale (0 no effect, 100 complete control)
# Procedure, shortened: as §1
# pigweed, palmer [22] = test: Test C postemergence; assay type: in vivo, Amaranthus palmeri; conditions: 10 days, 0 to 100 scale (0 no effect, 100 complete control)
# Procedure, shortened: as §1
# corn [23] = test: Test C preemergence; assay type: in vivo, Zea mays
# Procedure, shortened: as §1
# [24] = 500 g ai/ha, preemergence, 0 to 100 scale (0 no effect, 100 complete control)
# [25] = Preemergence, 125 g ai/ha, 0 to 100 scale, 0 no effect, 100 complete control
smiles,measurement,setting,value
"CC(C)c1ncn(-c2cc(C(=O)N3CC(C(F)(F)F)Oc4c(Cl)cccc43)ccn2)n1 (single isomer, unassigned) [Compound 331]","Pigweed, Palmer plant response rating","pigweed, palmer [1]; [24]",100
same,"Plant response rating, Pigweed, Palmer","pigweed, palmer [1]; [25]",30
same,"Foxtail, Giant plant response rating","foxtail, giant [2]; [24]",60
same,"Plant response rating, Foxtail, Giant","foxtail, giant [2]; [25]",20
same,Wheat plant response rating,wheat [3]; [24],0
same,"Plant response rating, Wheat",wheat [3]; [25],0
same,"Plant response rating, Barnyardgrass","barnyardgrass [4]; 500 g ai/ha, postemergence",30
same,"Plant response rating, Barnyardgrass","barnyardgrass [4]; Postemergence, 125 g ai/ha",10
same,Blackgrass plant response rating,blackgrass [5]; [24],70
same,"Plant response rating, Blackgrass",blackgrass [5]; [25],20
same,"Plant response rating, Ryegrass, Italian","ryegrass, Italian [6]; 500 g ai/ha, postemergence",10
same,"Plant response rating, Ryegrass, Italian","ryegrass, Italian [6]; Postemergence, 125 g ai/ha",0
same,"Plant response rating, Foxtail, Giant","foxtail, giant [7]; 500 g ai/ha, postemergence",40
same,"Plant response rating, Foxtail, Giant","foxtail, giant [7]; Postemergence, 125 g ai/ha",30
same,"Plant response rating, Soybean","soybean [8]; 500 g ai/ha, postemergence",100
same,"Plant response rating, Soybean","soybean [8]; Postemergence, 125 g ai/ha",90
same,"Plant response rating, Wheat","wheat [9]; 500 g ai/ha, postemergence",20
same,"Plant response rating, Wheat","wheat [9]; Postemergence, 125 g ai/ha",10
same,Barnyardgrass plant response rating,barnyardgrass [10]; [24],0
same,"Plant response rating, Barnyardgrass",barnyardgrass [10]; [25],0
same,Ragweed plant response rating,ragweed [11]; [24],0
same,"Plant response rating, Ragweed",ragweed [11]; [25],0
same,"Plant response rating, Oat, Wild","oat, wild [12]; 500 g ai/ha, postemergence",0
same,"Plant response rating, Oat, Wild","oat, wild [12]; Postemergence, 125 g ai/ha",0
same,"Ryegrass, Italian plant response rating","ryegrass, Italian [13]; [24]",60
same,"Plant response rating, Ryegrass, Italian","ryegrass, Italian [13]; [25]",60
same,"Plant response rating, Sedge, Umbrella (Flood)","sedge, umbrella",0
same,"Plant response rating, Horseweed","horseweed; 500 g ai/ha, postemergence",0
same,"Plant response rating, Horseweed","horseweed; Postemergence, 125 g ai/ha",0
same,"Plant response rating, Galium","galium; 500 g ai/ha, postemergence",50
same,"Plant response rating, Galium","galium; Postemergence, 125 g ai/ha",50
same,"Plant response rating, Rice (Flood)",rice,0
same,"Plant response rating, Ducksalad (Flood)",ducksalad,0
same,"Plant response rating, Kochia","kochia [14]; 500 g ai/ha, postemergence",70
same,"Plant response rating, Kochia","kochia [14]; Postemergence, 125 g ai/ha",40
same,Kochia plant response rating,kochia [15]; [24],20
same,"Plant response rating, Kochia",kochia [15]; [25],0
same,"Oat, Wild plant response rating","oat, wild [16]; [24]",20
same,"Plant response rating, Oat, Wild","oat, wild [16]; [25]",0
same,Soybean plant response rating,soybean [17]; [24],0
same,"Plant response rating, Soybean",soybean [17]; [25],0
same,"Plant response rating, Corn","corn [18]; 500 g ai/ha, postemergence",40
same,"Plant response rating, Corn","corn [18]; Postemergence, 125 g ai/ha",10
same,"Plant response rating, Ragweed","ragweed [19]; 500 g ai/ha, postemergence",0
same,"Plant response rating, Ragweed","ragweed [19]; Postemergence, 125 g ai/ha",0
same,"Plant response rating, Barnyardgrass (Flood)",barnyardgrass [20],0
same,"Plant response rating, Blackgrass","blackgrass [21]; 500 g ai/ha, postemergence",20
same,"Plant response rating, Blackgrass","blackgrass [21]; Postemergence, 125 g ai/ha",0
same,"Plant response rating, Pigweed, Palmer","pigweed, palmer [22]; 500 g ai/ha, postemergence",50
same,"Plant response rating, Pigweed, Palmer","pigweed, palmer [22]; Postemergence, 125 g ai/ha",20
same,Corn plant response rating,corn [23]; [24],0
same,"Plant response rating, Corn",corn [23]; [25],0

# — patent US20260262643A1, “HERBICIDAL BENZOXAZINES” (FMC CORPORATION, priority 2022, published 2026)
